Patent US4889851A, “Benzothiadiazine compounds, and pharmaceutical composition comprising the same” (Fujisawa Pharmaceutical Co, Ltd., priority 1986, dated 1989)

Test system: Neonatal calvaria (bone resorption)
Assay: Inhibition of hPTH-induced bone resorption in cultured neonatal rat calvaria (calcium accumulation in medium)
Format: cell-based, rat (Wistar)
Conditions: Test Compound 1×10^-5 M with hPTH(1-34) 1×10^-8 M; calvaria halves cultured 6 days at 37° C.; total calcium in medium by OCPC method
Method: Neonatal calvaria were dissected aseptically from 1-2 day old rat (Wistar), washed in Dulbecco's modified eagle's medium and divided along the sagittal suture. The calvaria halves were pooled and randomized in the different groups. The calvaria halves were cultured separately as free-floating bones in multi-well dishes containing a 2 ml of Dubecco's modified eagle's medium, with 10% heat-inactivated (56° C. for 1 hr) fetal calf serum. Treatment of hPTH(1-34)(1×10 ^-8 M) and the Test Compound (1×10 ^-5 M) was begun at zero time. All incubations were performed at 37° C., under an atmosphere of 95% air and 5% CO2 for 6 days. Bone resorption was determined by measuring the accumulation of calcium in the medium at 6 days. The concentration of total calcium in culture medium was measured by OCPC method with a spectrophotometer (Hitachi model U-3200, Tokyo, Japan).
As comparative data, similar tests were conducted using culture medium with hPTH (1×10^-8 M)only, and culture medium without both hPTH and Test Compound.
Test results were represented in terms of percentage of inhibition calculated by the following formula: [formula] CD the concentration of total calcium in culture medium treated with both hPTH and Test Compound
CO the concentration of total calcium in control culture medium without both hPTH and Test Compound
CP the concentration of total calcium in culture medium treated with hPTH only

SMILES	Inhibition (%)
CC(C)Oc1ccc2c(c1)N(C)C(=O)N(c1ccc(Cl)cc1)S2(=O)=O [(a), 2-(4-Chlorophenyl)-6-isopropoxy-4-methyl-2H-1,2,4-benzothiadiazine-3(4H)-one 1,1-dioxide]	79.7%
CC(C)COc1ccc2c(c1)N(C)C(=O)N(c1ccc(Cl)cc1)S2(=O)=O [(b), 2-(4-Chlorophenyl)-4-methyl-6-(2-methylpropoxy)-2H-1,2,4-benzothiadiazine-3(4H)-one 1,1-dioxide]	56.1%
CN1C(=O)N(c2ccc(Cl)cc2)S(=O)(=O)c2ccc(OCC3CCCCC3)cc21 [(c), 2-(4-Chlorophenyl)-4-methyl-6-cyclohexylmethoxy-2H -1,2,4-benzothiadiazine-3(4H)-one 1,1-dioxide]	62.5%
CC(C)Oc1ccc2c(c1)N(C)C(=O)N(c1ccc(C(F)(F)F)cc1)S2(=O)=O [(d), 2-(4-Trifluoromethylphenyl)-4-methyl-6-isopropoxy-2H-1,2,4-benzothiadiazine-3(4H)-one 1,1-dioxide]	52.9%
CC(Oc1ccc2c(c1)N(C)C(=O)N(c1ccc(Cl)cc1)S2(=O)=O)C(=O)O (stereo not drawn) [(e), 2-(4-Chlorophenyl)-6-(l-carboxyethoxy)-4-methyl-2H-1,2,4-benzothiadiazine-3(4H)-one 1,1-dioxide]	67.9%
C[C@@H](Oc1ccc2c(c1)N(C)C(=O)N(c1ccc(Cl)cc1)S2(=O)=O)C(=O)O [(f), (1R)-(+)-2-(4-Chlorophenyl)-6-(l-carboxyethoxy)-4-methyl-2H-1,2,4-benzothiadiazine-3(4H)-one 1,1-dioxide]	50.2%
